{
  "source": "paper PMC2217464",
  "about": "(The Journal of General Physiology, 2004)",
  "key": {"[1]": {"biological_target": "T1, mouse bestrophin-2 (mBest2) (Mus musculus, UniProt Q8BGM5, S79C)", "T1 sequence (Q8BGM5 1-508 S79C)": "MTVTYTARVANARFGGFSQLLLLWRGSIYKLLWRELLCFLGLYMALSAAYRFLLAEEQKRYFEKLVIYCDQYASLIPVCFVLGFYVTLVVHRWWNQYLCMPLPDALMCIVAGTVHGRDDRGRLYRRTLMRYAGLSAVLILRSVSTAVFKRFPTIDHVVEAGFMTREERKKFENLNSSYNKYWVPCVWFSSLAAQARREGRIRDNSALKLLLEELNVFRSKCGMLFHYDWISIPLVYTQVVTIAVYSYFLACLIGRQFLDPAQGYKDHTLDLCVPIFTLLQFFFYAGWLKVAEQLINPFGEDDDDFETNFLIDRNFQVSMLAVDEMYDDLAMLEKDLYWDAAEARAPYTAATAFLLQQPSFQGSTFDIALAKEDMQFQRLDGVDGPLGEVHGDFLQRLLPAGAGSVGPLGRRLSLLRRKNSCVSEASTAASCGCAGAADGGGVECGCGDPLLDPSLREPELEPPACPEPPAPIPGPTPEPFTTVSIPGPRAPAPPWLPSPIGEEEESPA", "experiment": "whole-cell patch clamp, block of Cl- current", "assay_type": "cell-based"}, "[2]": {"biological_target": "T2, mouse bestrophin-2 (mBest2) (Mus musculus, UniProt Q8BGM5)", "T2 sequence (Q8BGM5 1-508)": "T1 sequence (Q8BGM5 1-508 S79C) with C79S", "experiment": "whole-cell patch clamp, block of Cl- current", "assay_type": "cell-based"}},
  "note": "Residue numbers refer to the chain shown, from its start.",
  "data": [
    {"smiles": "O=S(=O)(O)c1cc(N=C=S)ccc1/C=C/c1ccc(N=C=S)cc1S(=O)(=O)O", "note": "[DIDS]", "values": [
      {"measurement": "IC50", "setting": "[1]", "value": "14.6 ± 3.6", "unit": "µM"},
      {"measurement": "IC50", "setting": "[2]", "value": "3.1 ± 0.3", "unit": "µM"}
    ]},
    {"smiles": "N#CS", "note": "[SCN^−]", "values": [
      {"measurement": "IC50", "setting": "[2]", "value": 12000, "unit": "µM"}
    ]}
  ]
}
